For 30 compounds, IC50 results are on record in US8883833B2, “Substituted benzoazole PDE4 inhibitors for treating inflammatory, cardiovascular and CNS disorders” (Decode Genetics EHF, priority 2007, dated 2014).

The target of one assay is human PDE4B isozyme (Homo sapiens, UniProt Q07343). The assay is described as follows: IC50 for human PDE4B isozyme (Table 5). Format: biochemical. The conditions noted are these: read-out: IC50 for human PDE4B isozyme, hPDE4B. As for the experimental part: (§1) In-vitro assay for PDE4 enzymes. The in-vitro activity of PDE4 enzymes and the in-vitro potency of therapeutic agents described in the present invention was measured using a real-time, enzyme-coupled spectrophotometric assay. By using three different coupling enzymes, the product of the PDE4 reaction is coupled to the oxidation of the reduced form β-nicotinamide adenine dinucleotide (NADH), which dissipation can be monitored spectrophotmetrically at […]. Assay description. Buffer A containing 50 mM Tris, pH 8.0, 16 mM MgCl2 and 80 mM KCl is prepared and stored at room temperature. Buffer B containing 50 mM Tris, pH 8.0 is prepared and stored at toom temperature. Stock solutions of the following reagents are prepared in Buffer B and stored at −20° C.: Adenosine-5′-triphosphate (ATP), cyclic adenosine-5′-monophosphate (cAMP), phosphoenolpyruvate (PEP) and NADH. An assay mix is prepared by mixing Buffer A, […] (TCEP), ATP, PEP, NADH, myokinase (MK), pyruvate kinase (PK), lactate dehydroganese (LDH) and PDE4 to a final volume of 20 mL, which is enough for a single 96-well assay plate. Assay mix (180 μL) and test article (10 μL) in 1:1 DMSO/H2O mixture is pre-incubated at room temperature for 10 min. The enzymatic reaction is initiated by addition of cAMP (10 μL). Final concentration of all components in the assay (200 μL/well) are as follows: 10 mM MgCl2, 50 mM KCl, 5 mM TCEP, 2.5% DMSO, 0.4 mM NADH, 1 mM PEP, 0.04 mM ATP, 5 units MK, 1 unit PK, 1 unit LDH and appropriate amount of PDE4. Reaction progress curves are monitored in a plate reader capable of measuring light absorbance at 340 nm. A decrease in light absorbance at 340 nm is due to oxidation of NADH. Positive controls containing no test article and negative controls containing no test article and no cAMP are included on every assay plate. Reaction rates are determined from the slopes of the linear portions of the progress curves. All data is percent normalized with respect to controls and presented as percent inhibition.

The next assay concerns the target human PDE4D isozyme (Homo sapiens, UniProt Q08499). The assay is described as follows: IC50 for human PDE4D isozyme (Table 4). Format: biochemical. The conditions noted are these: read-out: IC50 for human PDE4D isozyme, hPDE4D. On the procedure: as §1

Chain of human PDE4D isozyme (Q08499 whole entry): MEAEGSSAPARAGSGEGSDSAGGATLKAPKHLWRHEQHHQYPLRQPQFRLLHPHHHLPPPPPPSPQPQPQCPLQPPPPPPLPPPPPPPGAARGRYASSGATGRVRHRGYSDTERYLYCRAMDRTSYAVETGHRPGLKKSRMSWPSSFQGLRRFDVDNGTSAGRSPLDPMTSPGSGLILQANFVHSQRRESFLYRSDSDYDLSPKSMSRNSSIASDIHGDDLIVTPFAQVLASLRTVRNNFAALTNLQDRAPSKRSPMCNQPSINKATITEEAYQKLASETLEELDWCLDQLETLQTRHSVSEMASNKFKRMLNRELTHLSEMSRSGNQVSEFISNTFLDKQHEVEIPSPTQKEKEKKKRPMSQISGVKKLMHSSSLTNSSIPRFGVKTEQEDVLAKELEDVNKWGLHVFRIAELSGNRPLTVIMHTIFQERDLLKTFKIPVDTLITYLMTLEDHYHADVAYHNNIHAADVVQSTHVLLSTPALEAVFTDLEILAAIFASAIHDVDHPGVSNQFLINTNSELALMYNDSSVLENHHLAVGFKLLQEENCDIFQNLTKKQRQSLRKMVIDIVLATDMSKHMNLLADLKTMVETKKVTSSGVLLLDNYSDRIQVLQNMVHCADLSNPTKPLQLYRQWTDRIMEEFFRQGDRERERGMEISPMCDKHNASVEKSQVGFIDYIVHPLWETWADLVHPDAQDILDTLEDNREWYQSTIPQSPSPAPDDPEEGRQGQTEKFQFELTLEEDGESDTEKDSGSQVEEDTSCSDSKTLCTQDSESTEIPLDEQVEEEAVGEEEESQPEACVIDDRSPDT
Chain of human PDE4B isozyme (Q07343 whole entry): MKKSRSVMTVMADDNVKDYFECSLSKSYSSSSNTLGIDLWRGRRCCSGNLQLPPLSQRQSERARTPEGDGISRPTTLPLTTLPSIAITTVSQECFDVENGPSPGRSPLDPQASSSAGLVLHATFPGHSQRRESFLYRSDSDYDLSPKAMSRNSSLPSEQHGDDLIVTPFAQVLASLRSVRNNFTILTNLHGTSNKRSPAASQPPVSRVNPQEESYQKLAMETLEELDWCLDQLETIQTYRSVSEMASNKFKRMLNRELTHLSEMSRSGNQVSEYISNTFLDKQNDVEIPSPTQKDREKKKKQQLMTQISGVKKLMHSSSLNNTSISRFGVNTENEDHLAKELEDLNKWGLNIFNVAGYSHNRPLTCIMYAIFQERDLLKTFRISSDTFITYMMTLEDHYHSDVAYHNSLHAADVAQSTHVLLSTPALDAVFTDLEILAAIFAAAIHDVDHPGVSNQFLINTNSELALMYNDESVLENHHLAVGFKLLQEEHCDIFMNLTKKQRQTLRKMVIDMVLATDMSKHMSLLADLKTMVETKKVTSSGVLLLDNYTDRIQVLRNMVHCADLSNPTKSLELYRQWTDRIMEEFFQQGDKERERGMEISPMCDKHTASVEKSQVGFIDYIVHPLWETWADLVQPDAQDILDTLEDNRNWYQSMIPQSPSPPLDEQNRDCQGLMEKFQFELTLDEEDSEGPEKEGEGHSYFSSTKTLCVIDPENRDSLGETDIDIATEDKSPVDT

In the case of `CS(=O)(=O)Nc1ccc(Cc2cc3sc(N)nc3c(-c3cccc(Cl)c3)c2F)cc1` [BA-19, N-{4-[2-amino-4-(3-chloro-phenyl)-5-fluoro-benzothiazol-6-ylmethyl]-phenyl}-methanesulfonamide], the figures for the IC50 on human PDE4B isozyme and on human PDE4D isozyme were 5 to 20 µM and below 5 µM, respectively.

For `NC(=O)[C@@H]1CCN1c1ccc(Cc2cc3scnc3c(-c3cccc(Cl)c3)c2F)cn1` [BA-74, (S)-1-{5-[4-(3-chloro-phenyl)-5-fluoro-benzothiazol-6-ylmethyl]-pyridin-2-yl}-azetidine-2-carboxylic acid amide], the IC50 on human PDE4B isozyme and at human PDE4D isozyme was below 5 µM in each case.

In the case of `CCOC(=O)NC1CCN(Cc2cc3scnc3c(-c3cccc(Cl)c3)c2F)CC1` [BA-45, {1-[4-(3-Chloro-phenyl)-5-fluoro-benzothiazol-6-ylmethyl]-piperidin-4-yl}-carbamic acid ethyl ester], the IC50 at human PDE4B isozyme is 5 to 20 µM; at human PDE4D isozyme, below 5 µM.

For the compound `CS(=O)(=O)Nc1ccc(Cc2cc(-c3cccc(Cl)c3)c3nc(N)oc3c2)cc1` [BA-20, N-{4-[2-Amino-4-(3-chloro-phenyl)-benzooxazol-6-ylmethyl]-phenyl}-methanesulfonamide], the IC50 at human PDE4B isozyme and at human PDE4D isozyme was below 5 µM in each case.

With `Cc1nc2c(-c3cccc(Cl)c3)cc(Cc3ccc(N)nc3)cc2s1` [BA-66, 5-[4-(3-chloro-phenyl)-2-methyl-benzothiazol-6-ylmethyl]-pyridin-2-ylamine], the IC50 on human PDE4D isozyme is below 5 µM.

For `Cn1nccc1C(O)c1cc(-c2ccc3c(c2)OCO3)c2nc(N)sc2c1` (stereo not drawn) [BA-06, (2-Amino-4-benzo[1,3]dioxol-5-yl-benzothiazol-6-yl)-(2-methyl-2H-pyrazol-3-yl)-methanol], the IC50 at human PDE4B isozyme and on human PDE4D isozyme was below 5 µM in each case.

In the case of `CCNC(=O)Nc1ccc(Cc2cc3sc(N)nc3c(-c3cccc(Cl)c3)c2F)cc1` [BA-29, 1-{4-[2-Amino-4-(3-chloro-phenyl)-5-fluoro-benzothiazol-6-ylmethyl]-phenyl}-3-ethyl-urea], the half-maximal inhibitory concentration (IC50) at human PDE4B isozyme and on human PDE4D isozyme was below 5 µM throughout.

Take `CCOC(=O)N1CCN(Cc2cc3scnc3c(-c3cccc(Cl)c3)c2F)CC1` [BA-49, 4-[4-(3-Chloro-phenyl)-5-fluoro-benzothiazol-6-ylmethyl]-piperazine-1-carboxylic acid ethyl ester]: the IC50 on human PDE4B isozyme and at human PDE4D isozyme was below 5 µM throughout.

As to `NC(=O)Nc1ccc(Cc2cc(-c3cccc(Cl)c3)c3ncsc3c2)cc1` [BA-28, {4-[4-(3-Chloro-phenyl)-benzothiazol-6-ylmethyl]-phenyl}-urea], the half-maximal inhibitory concentration (IC50) at human PDE4B isozyme and on human PDE4D isozyme was below 5 µM throughout.

For `CN(C)c1ccc(Cc2cc(-c3cccc(Cl)c3)c3ncsc3c2)cn1` [BA-58, {5-[4-(3-chloro-phenyl)-benzothiazol-6-ylmethyl]-pyridin-2-yl}-dimethyl-amine], the IC50 on human PDE4B isozyme and on human PDE4D isozyme was below 5 µM each time.

On to `Cc1nc2c(-c3cccc(Cl)c3)cc(Cc3ccc(N)cc3)cc2o1` [BA-22, 4-{[4-(3-chlorophenyl)-2-methyl-1,3-benzoxazol-6-yl]methyl}aniline], for which the concentration for half-maximal inhibition (IC50) on human PDE4B isozyme and at human PDE4D isozyme was below 5 µM in each case.

Consider `CCNC(=O)N1CCN(Cc2cc3scnc3c(-c3cccc(Cl)c3)c2F)C(=O)C1` [BA-72, 4-[4-(3-Chloro-phenyl)-5-fluoro-benzothiazol-6-ylmethyl]-3-oxo-piperazine-1-carboxylic acid ethylamide], for which the 50% inhibitory concentration (IC50) at human PDE4B isozyme and at human PDE4D isozyme was below 5 µM in each case.

Consider `NC(=O)NC1CCN(Cc2cc3scnc3c(-c3cccc(Cl)c3)c2F)CC1` [BA-46, [1-[4-(3-Chloro-phenyl)-5-fluoro-benzothiazol-6-ylmethyl]-piperidin-4-yl]-urea], for which the IC50 at human PDE4B isozyme was 5 to 20 µM; on human PDE4D isozyme, below 5 µM.

Take `CCNC(=O)Nc1ccc(Cc2cc3scnc3c(-c3cccc(Cl)c3)c2F)cc1` [BA-30, 1-{4-[4-(3-chloro-phenyl)-5-fluoro-benzothiazol-6-ylmethyl]-phenyl}-3-ethyl-urea]: the IC50 on human PDE4B isozyme and at human PDE4D isozyme was below 5 µM throughout.

As for `CCNC(=O)Nc1ccc(Cc2cc3scnc3c(-c3cccc(Cl)c3)c2F)cn1` [BA-33, 1-[5-[4-(3-chloro-phenyl)-5-fluoro-benzothiazol-6-ylmethyl]-pyridin-2-yl]-3-ethyl-urea], the IC50 at human PDE4B isozyme and on human PDE4D isozyme was below 5 µM throughout.

Regarding `N#Cc1ccc(Cc2cc3scnc3c(-c3cccc(Cl)c3)c2F)cn1` [BA-60, 5-[4-(3-chloro-phenyl)-5-fluoro-benzothiazol-6-ylmethyl]-pyridine-2-carbonitrile], the 50% inhibitory concentration (IC50) at human PDE4B isozyme and at human PDE4D isozyme was below 5 µM each time.

`Nc1ccc(Cc2cc3sc(N)nc3c(-c3cccc([N+](=O)[O-])c3)c2O)cc1` [BA-15, 2-Amino-6-(4-amino-benzyl)-4-(3-nitro-phenyl)-benzothiazol-5-ol]: the concentration for half-maximal inhibition (IC50) on human PDE4B isozyme and on human PDE4D isozyme was below 5 µM in each case.

In the case of `CCNC(=O)N1CCN(Cc2cc3scnc3c(-c3cccc(Cl)c3)c2F)CC1` [BA-52, 4-[4-(3-chloro-phenyl)-5-fluoro-benzothiazol-6-ylmethyl]-piperazine-1-carboxylic acid ethylamide], the IC50 on human PDE4B isozyme is 20 to 40 µM; on human PDE4D isozyme it was below 5 µM.

With `Nc1ccc(Cc2cc(-c3cccc(Cl)c3)c3nc(N)sc3c2)cc1` [BA-26, 6-(4-Amino-benzyl)-4-(3-chloro-phenyl)-benzothiazol-2-ylamine], the half-maximal inhibitory concentration (IC50) on human PDE4B isozyme and on human PDE4D isozyme was below 5 µM throughout.

For the compound `Nc1nc2c(-c3cccc([N+](=O)[O-])c3)cc(Cn3ccnc3)cc2s1` [BA-02, 6-imidazol-1-ylmethyl-4-(3-nitro-phenyl)-benzothiazol-2-ylamine], the half-inhibitory concentration (IC50) at human PDE4B isozyme and at human PDE4D isozyme was below 5 µM throughout.

As to `Fc1c(Cc2ccc(N3CCCC3)nc2)cc2scnc2c1-c1cccc(Cl)c1` [BA-57, 4-(3-chloro-phenyl)-5-fluoro-6-(6-pyrrolidin-1-yl-pyridin-3-ylmethyl)-benzothiazole], the concentration for half-maximal inhibition (IC50) on human PDE4D isozyme was below 5 µM.

Regarding `CSc1cccc(-c2cc(Cn3cccn3)cc3sc(N)nc23)c1` [BA-14, 4-(3-Methylsulfanyl-phenyl)-6-pyrazol-1-ylmethyl-benzothiazol-2-ylamine], the concentration for half-maximal inhibition (IC50) at human PDE4B isozyme and at human PDE4D isozyme was below 5 µM in each case.

For `NC(=O)[C@H]1CCN1c1ccc(Cc2cc3scnc3c(-c3cccc(Cl)c3)c2F)cn1` [BA-75, (R)-1-{5-[4-(3-chloro-phenyl)-5-fluoro-benzothiazol-6-ylmethyl]-pyridin-2-yl}-azetidine-2-carboxylic acid amide], the IC50 at human PDE4B isozyme and on human PDE4D isozyme was below 5 µM throughout.

On to `CCNC(=O)Nc1ccc(Cc2cc(-c3cccc(Cl)c3)c3nc(C)sc3c2)cn1` [BA-67, 1-{5-[4-(3-chloro-phenyl)-2-methyl-benzothiazol-6-ylmethyl]-pyridin-2-yl}-3-ethyl-urea], for which the concentration for half-maximal inhibition (IC50) on human PDE4B isozyme and at human PDE4D isozyme was below 5 µM each time.

As for `CN1CCN(Cc2cc3scnc3c(-c3cccc(Cl)c3)c2F)CC1` [BA-50, 4-(3-Chloro-phenyl)-5-fluoro-6-(4-methyl-piperazin-1-ylmethyl)-benzothiazole], the IC50 at human PDE4D isozyme is below 5 µM.

For `Nc1nc2c(-c3cccc(Br)c3)cc(Cc3ccc(F)cc3)cc2s1` [BA-13, 4-(3-bromophenyl)-6-(4-fluorobenzyl)-1,3-benzothiazol-2-amine], the half-maximal inhibitory concentration (IC50) on human PDE4B isozyme and on human PDE4D isozyme was below 5 µM each time.

For `CN(C)c1ccc(Cc2cc3scnc3c(-c3cccc(Cl)c3)c2F)cn1` [BA-55, {5-[4-(3-chloro-phenyl)-5-fluoro-benzothiazol-6-ylmethyl]-pyridin-2-yl}-dimethyl-amine], the IC50 at human PDE4B isozyme and at human PDE4D isozyme was below 5 µM each time.

As for `CC(=O)N1CCN(Cc2cc3scnc3c(-c3cccc(Cl)c3)c2F)CC1` [BA-44, 1-{4-[4-(3-Chloro-phenyl)-5-fluoro-benzothiazol-6-ylmethyl]-piperazin-1-yl}-ethanone], the IC50 on human PDE4B isozyme is 5 to 20 µM; on human PDE4D isozyme, below 5 µM.

Turning to `Cc1nc2c(-c3cccc(Cl)c3)cc(Cc3ccc(NC(N)=O)cc3)cc2o1` [BA-24, N-(4-{[4-(3-chlorophenyl)-2-methyl-1,3-benzoxazol-6-yl]methyl}phenyl)urea], the half-inhibitory concentration (IC50) at human PDE4B isozyme and at human PDE4D isozyme was below 5 µM each time.

Take `CCNC(=O)Nc1ccc(Cc2cc3scnc3c(-c3cccc(C#N)c3)c2F)cn1` [BA-53, 1-{5-[4-(3-cyano-phenyl)-5-fluoro-benzothiazol-6-ylmethyl]-pyridin-2-yl}-3-ethyl-urea]: the IC50 on human PDE4B isozyme and at human PDE4D isozyme was below 5 µM each time.
